Source: ChEMBL document CHEMBL5465560, “Selectivity Literature for EUbOPEN Chemogenomic Library” (2024)

Key:
[1] = molecular target: T1, Tyrosine-protein kinase Mer (Homo sapiens) (UniProt Q12866); assay: Selectivity interaction (KinomeScan (DiscoverX)) EUB0000666a MERTK; conditions: at 10 µM
T1 sequence (whole entry): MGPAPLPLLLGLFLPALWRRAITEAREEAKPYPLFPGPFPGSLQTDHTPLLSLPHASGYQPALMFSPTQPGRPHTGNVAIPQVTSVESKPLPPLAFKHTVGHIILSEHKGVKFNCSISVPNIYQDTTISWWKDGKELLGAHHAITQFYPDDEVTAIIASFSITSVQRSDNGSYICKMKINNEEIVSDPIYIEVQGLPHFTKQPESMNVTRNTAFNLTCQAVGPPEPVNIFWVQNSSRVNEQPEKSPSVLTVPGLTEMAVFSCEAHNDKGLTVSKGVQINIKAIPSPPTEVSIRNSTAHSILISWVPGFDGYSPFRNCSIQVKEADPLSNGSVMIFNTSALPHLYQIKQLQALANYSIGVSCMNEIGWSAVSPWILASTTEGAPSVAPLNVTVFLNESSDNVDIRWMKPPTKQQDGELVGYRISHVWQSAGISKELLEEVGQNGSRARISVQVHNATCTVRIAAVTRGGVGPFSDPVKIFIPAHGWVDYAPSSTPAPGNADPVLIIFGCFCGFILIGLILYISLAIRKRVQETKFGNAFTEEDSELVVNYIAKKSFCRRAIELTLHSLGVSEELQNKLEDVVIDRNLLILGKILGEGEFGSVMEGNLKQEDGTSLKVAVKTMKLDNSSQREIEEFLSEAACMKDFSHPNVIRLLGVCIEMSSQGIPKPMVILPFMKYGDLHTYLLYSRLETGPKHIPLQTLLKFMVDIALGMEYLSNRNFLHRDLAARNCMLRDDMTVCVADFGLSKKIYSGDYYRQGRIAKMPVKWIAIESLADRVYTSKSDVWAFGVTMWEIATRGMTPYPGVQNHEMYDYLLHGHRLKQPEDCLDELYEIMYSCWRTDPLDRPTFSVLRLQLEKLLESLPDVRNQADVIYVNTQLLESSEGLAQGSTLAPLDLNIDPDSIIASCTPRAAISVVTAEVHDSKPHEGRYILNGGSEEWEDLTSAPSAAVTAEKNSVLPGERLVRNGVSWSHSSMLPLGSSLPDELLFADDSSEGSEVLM

[2] = molecular target: Ribosomal protein S6 kinase alpha-5 (Homo sapiens) (UniProt O75582); assay: Selectivity interaction (KinomeScan (DiscoverX)) EUB0000607a RPS6KA5; conditions: at 10 µM
[3] = test system: Phosphatidylinositol 4,5-bisphosphate 3-kinase catalytic subunit alpha isoform (Homo sapiens), P42336 [E542K]; conditions: at 10 µM
[4] = molecular target: Interferon-induced, double-stranded RNA-activated protein kinase (Homo sapiens) (UniProt P19525); assay: Selectivity interaction (ActivX KiNativ screen (kinase selectivity in THP-1 cell lysates)) EUB0000639a EIF2AK2; assay type: subcellular; conditions: lysate
[5] = molecular target: Cyclin-dependent kinase 18 (Homo sapiens) (UniProt Q07002); assay: Selectivity interaction (KinomeScan (DiscoverX)) EUB0000695a CDK18; conditions: at 100 nM
[6] = molecular target: T2, Tyrosine-protein kinase Tec (Homo sapiens) (UniProt P42680); assay: Selectivity interaction (KinomeScan (DiscoverX)) EUB0000695a TEC; conditions: at 100 nM
T2 sequence (whole entry): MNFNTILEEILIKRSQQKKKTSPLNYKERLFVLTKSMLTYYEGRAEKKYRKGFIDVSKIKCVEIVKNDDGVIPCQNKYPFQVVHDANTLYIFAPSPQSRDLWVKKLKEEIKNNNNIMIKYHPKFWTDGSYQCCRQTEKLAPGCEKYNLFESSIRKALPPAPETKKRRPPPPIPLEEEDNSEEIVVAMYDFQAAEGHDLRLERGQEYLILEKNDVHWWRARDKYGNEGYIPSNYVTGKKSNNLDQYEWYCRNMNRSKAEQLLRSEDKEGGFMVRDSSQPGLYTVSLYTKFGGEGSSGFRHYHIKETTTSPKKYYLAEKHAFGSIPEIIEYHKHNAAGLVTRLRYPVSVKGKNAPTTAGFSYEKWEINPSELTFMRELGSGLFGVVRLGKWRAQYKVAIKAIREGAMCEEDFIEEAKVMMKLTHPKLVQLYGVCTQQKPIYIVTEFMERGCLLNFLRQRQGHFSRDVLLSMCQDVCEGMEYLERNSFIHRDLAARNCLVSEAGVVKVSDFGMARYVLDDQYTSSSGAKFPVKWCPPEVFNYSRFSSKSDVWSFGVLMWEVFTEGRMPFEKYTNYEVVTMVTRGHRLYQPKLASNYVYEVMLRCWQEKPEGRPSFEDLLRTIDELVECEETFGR

[7] = molecular target: Dual specificity protein kinase CLK4 (Homo sapiens, UniProt Q9HAZ1); assay: Selectivity interaction (Ambit KINOMEscan and KiNATiv profiling in Jurkat cells) EUB0000090b CLK4; assay type: cell-based; conditions: at 1 µM
[8] = molecular target: Ephrin type-A receptor 2 (Homo sapiens) (UniProt P29317); assay: Selectivity interaction (Kinase panel (DSF assay)) EUB0001558a EPHA2
[9] = molecular target: T3, Receptor-interacting serine/threonine-protein kinase 1 (Homo sapiens) (UniProt Q13546); assay: Selectivity interaction (KinomeScan (DiscoverX)) EUB0000229b RIPK1; conditions: at 10 µM
T3 sequence (whole entry): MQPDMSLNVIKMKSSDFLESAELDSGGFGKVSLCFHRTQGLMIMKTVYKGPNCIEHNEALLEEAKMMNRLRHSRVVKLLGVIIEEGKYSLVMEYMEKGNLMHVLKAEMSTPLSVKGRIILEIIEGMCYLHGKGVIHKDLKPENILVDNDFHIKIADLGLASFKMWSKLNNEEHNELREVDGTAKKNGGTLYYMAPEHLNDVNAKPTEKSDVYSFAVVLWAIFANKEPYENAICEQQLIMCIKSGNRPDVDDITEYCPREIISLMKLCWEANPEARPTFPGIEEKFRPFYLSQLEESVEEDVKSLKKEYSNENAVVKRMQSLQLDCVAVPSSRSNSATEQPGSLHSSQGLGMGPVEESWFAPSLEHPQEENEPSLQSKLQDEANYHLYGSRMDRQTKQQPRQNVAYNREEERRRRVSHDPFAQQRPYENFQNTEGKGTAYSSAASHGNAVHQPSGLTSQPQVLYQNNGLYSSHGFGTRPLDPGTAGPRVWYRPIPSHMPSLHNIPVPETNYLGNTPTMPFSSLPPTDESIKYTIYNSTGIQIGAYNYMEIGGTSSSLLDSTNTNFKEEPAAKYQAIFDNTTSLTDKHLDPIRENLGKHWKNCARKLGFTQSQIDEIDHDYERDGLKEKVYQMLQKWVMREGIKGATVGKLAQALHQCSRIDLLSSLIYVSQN

[10] = molecular target: Cyclin-dependent kinase-like 1 (Homo sapiens) (UniProt Q00532); assay: Selectivity interaction (KinomeScan (DiscoverX)) EUB0000092b CDKL1; conditions: at 10 µM
Cyclin-dependent kinase-like 1 (Homo sapiens), sequence (Q00532 whole entry): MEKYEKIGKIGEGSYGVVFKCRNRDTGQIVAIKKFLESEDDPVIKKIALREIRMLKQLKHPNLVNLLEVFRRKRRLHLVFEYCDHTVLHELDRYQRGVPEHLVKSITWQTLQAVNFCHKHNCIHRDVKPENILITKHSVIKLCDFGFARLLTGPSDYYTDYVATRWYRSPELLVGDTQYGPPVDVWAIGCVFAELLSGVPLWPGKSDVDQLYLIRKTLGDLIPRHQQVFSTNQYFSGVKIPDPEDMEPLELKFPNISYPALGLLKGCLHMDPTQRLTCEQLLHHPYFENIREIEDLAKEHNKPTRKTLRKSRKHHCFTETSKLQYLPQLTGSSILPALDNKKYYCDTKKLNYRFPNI

Interferon-induced, double-stranded RNA-activated protein kinase (Homo sapiens), sequence (P19525 whole entry): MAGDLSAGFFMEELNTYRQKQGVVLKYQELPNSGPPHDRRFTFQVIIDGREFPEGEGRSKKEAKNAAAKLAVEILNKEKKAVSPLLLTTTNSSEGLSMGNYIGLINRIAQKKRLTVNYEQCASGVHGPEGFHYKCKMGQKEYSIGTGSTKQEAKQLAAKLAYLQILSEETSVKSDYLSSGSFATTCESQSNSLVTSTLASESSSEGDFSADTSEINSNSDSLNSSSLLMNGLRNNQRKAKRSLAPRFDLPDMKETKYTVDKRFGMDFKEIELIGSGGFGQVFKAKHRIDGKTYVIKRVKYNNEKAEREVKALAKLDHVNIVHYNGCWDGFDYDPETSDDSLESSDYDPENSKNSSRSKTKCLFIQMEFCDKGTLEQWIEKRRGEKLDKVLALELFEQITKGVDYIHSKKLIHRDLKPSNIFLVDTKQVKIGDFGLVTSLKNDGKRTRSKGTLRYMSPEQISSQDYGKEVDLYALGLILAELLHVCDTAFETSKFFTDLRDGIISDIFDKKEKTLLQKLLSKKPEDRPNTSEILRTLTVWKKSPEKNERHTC
Cyclin-dependent kinase 18 (Homo sapiens), sequence (Q07002 whole entry): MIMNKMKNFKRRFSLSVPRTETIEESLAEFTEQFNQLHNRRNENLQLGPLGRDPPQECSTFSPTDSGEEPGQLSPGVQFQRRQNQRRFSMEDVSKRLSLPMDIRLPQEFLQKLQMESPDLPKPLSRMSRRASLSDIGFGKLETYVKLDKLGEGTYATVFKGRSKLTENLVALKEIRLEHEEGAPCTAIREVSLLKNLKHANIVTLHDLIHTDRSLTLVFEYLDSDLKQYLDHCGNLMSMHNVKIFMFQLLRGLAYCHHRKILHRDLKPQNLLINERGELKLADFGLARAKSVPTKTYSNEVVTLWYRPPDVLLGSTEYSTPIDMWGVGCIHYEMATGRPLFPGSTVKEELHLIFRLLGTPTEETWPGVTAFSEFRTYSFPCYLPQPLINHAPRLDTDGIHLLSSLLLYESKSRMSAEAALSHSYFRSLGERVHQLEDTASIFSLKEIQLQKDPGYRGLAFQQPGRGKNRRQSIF
Phosphatidylinositol 4,5-bisphosphate 3-kinase catalytic subunit alpha isoform (Homo sapiens), P42336 [E542K], sequence (P42336 whole entry E542K, canonical isoform): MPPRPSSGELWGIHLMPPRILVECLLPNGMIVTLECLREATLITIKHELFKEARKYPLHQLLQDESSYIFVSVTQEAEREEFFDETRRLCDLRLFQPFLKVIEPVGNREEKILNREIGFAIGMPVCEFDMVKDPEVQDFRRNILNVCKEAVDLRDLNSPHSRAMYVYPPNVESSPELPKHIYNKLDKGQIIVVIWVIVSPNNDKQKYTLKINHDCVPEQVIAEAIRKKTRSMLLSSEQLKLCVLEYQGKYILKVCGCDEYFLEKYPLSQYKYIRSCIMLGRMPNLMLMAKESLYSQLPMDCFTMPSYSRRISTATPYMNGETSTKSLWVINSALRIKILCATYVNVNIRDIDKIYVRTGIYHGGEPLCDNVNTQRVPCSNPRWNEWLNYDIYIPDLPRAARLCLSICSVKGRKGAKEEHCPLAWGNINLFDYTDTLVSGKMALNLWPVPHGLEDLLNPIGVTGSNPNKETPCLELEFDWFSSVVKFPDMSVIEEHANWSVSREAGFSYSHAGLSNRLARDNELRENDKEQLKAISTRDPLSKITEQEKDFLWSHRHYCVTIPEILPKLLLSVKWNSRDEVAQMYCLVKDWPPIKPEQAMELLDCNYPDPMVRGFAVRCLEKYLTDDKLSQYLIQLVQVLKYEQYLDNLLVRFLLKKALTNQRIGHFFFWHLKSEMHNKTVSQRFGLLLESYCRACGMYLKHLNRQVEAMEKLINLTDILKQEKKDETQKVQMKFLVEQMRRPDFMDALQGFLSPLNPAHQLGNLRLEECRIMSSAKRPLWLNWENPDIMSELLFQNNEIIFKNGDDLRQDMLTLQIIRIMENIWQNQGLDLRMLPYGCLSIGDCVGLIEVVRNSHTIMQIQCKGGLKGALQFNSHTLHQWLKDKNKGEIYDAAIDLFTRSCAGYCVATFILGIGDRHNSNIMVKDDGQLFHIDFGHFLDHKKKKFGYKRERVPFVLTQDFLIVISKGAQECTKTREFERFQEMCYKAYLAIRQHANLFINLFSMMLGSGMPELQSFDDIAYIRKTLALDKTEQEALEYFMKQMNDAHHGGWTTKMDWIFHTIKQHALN
Ribosomal protein S6 kinase alpha-5 (Homo sapiens), sequence (O75582 whole entry, looked up, canonical isoform): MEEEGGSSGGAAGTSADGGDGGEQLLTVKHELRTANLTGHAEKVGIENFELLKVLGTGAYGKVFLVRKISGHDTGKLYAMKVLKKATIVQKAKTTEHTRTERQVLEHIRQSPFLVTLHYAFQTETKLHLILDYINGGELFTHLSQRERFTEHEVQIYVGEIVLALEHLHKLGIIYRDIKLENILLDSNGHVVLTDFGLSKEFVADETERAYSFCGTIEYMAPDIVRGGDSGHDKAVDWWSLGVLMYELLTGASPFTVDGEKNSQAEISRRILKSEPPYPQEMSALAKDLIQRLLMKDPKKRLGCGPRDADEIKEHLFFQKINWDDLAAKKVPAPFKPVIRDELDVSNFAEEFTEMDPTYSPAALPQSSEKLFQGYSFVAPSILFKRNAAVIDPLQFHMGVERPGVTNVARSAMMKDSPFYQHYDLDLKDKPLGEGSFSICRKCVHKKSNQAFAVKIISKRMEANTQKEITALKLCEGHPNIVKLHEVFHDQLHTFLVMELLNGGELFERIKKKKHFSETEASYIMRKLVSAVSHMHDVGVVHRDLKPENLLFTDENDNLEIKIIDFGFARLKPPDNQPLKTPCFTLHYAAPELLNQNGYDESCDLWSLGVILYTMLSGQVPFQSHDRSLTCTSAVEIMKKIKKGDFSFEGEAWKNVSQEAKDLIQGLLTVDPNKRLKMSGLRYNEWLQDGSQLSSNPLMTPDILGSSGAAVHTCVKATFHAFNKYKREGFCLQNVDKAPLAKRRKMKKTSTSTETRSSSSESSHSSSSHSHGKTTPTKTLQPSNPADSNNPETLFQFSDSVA
Dual specificity protein kinase CLK4, sequence (Q9HAZ1 whole entry, looked up): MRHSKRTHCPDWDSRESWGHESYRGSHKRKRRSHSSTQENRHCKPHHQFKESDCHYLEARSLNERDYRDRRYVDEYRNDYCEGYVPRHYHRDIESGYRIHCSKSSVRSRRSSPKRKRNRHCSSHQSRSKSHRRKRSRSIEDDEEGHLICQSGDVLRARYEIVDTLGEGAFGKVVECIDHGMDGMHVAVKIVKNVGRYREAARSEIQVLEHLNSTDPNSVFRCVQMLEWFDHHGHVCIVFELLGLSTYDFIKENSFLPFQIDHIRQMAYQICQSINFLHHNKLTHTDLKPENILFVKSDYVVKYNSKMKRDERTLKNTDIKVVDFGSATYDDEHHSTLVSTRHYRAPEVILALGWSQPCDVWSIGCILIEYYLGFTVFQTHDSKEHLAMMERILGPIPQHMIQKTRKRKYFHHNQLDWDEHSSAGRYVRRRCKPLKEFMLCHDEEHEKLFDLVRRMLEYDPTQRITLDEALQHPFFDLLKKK
Ephrin type-A receptor 2 (Homo sapiens), sequence (P29317 whole entry): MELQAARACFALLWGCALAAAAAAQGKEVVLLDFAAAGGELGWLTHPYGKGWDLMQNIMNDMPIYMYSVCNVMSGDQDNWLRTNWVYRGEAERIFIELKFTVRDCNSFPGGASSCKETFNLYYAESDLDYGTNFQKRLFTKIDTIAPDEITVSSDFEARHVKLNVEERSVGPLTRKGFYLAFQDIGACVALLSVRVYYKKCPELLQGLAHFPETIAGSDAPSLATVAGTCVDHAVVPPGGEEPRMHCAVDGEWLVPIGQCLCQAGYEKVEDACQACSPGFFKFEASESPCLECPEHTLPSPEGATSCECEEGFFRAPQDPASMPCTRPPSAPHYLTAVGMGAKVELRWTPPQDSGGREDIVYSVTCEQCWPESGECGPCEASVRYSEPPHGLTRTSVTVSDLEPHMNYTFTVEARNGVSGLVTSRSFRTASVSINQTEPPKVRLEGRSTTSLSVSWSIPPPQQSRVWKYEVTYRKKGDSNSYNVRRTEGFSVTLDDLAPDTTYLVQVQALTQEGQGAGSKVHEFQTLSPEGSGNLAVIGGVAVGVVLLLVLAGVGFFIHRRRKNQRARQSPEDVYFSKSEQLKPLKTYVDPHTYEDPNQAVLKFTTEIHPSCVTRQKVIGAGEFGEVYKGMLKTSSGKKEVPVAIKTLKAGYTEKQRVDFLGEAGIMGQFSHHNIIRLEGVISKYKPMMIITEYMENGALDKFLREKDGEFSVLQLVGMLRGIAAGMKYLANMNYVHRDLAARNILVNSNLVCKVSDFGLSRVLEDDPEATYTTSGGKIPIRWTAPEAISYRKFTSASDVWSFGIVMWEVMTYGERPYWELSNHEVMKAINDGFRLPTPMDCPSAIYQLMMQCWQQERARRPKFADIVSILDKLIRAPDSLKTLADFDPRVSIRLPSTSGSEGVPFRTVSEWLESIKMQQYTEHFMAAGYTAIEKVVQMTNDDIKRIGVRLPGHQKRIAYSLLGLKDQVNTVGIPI

Structure (SMILES): O=C(NOC[C@H](O)CO)c1ccc(F)c(F)c1Nc1ccc(I)cc1F
- % of control [1]: 100%

Structure (SMILES): CNC(=O)Nc1ccc(-c2nc(N3CC4CCC(C3)O4)c3cnn(C4CCC5(CC4)OCCO5)c3n2)cc1
- % of control [2]: 90%
- % of control [3]: 14%

Structure (SMILES): CC[C@@H]1[C@H](F)C(=O)N[C@@H]1COc1nccc2cc(C(N)=O)c(OC)cc12 [ZIMLOVISERTIB]
- % of inhibition ([4]; at 0.01 µM): 0.5%
- % of inhibition ([4]; at 0.04 µM): -0.3%
- % of inhibition ([4]; at 0.2 µM): 7.5%
- % of inhibition ([4]; at 1 µM): -3.5%
- % of inhibition ([4]; at 5 µM): -12.9%

Structure (SMILES): Cc1cc(F)c(C(=O)Nc2cccc(-c3nncn3C(C)C)n2)cc1-n1cnc(C2CC2)c1
- % of control [5]: 91%
- % of control [6]: 100%

Structure (SMILES): CN(C)C/C=C/C(=O)Nc1ccc(C(=O)N2CCCC(Nc3ncc(Cl)c(-c4c[nH]c5ccccc45)n3)C2)cc1 (centres undefined)
- % of control [7]: 73%

Structure (SMILES): CC(C)(O)[C@H](F)CN1Cc2cc(NC(=O)c3cnn4cccnc34)c(N3CCOCC3)cc2C1=O
- dTM [8]: 3.4 K

Structure (SMILES): COc1cc(N(C)c2ccnc3ccc(C(F)(F)F)cc23)cc(OC)c1OC
- % binding [9]: 98%

Structure (SMILES): CCC(=O)N1CCN(c2ccc(-n3c(=O)ccc4cnc5ccc(-c6cnc7ccccc7c6)cc5c43)cc2C(F)(F)F)CC1
- % of control [10]: 100%
